Reference: US12258327B2, “5-membered heteroaryl-containing aminopyridine compounds as EGFR inhibitors” (YUHAN CORPORATION, priority 2021, dated 2025)
Where two headings read alike, the source gives them in different places.

Key:
EGFR del19/T790M/C797S = EGFR del19/T790M/C797S (Homo sapiens, UniProt P00533, C797S/DEL746-750/T790M); test: Biochemical EGFR kinase assay (Lance Ultra TR-FRET), triple mutant del19/T790M/C797S
Summary of the method: (§1)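 Enzyme reactions lasted 1 hour at room temperature with test compounds between 0.003 and 10 μM, followed by 10 mM EDTA quench.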

EGFR L858R/C797S = EGFR L858R/C797S (Homo sapiens, UniProt P00533, C797S/L858R); test: Biochemical EGFR kinase assay (Lance Ultra TR-FRET), double mutant L858R/C797S
Summary of the method: as §1

EGFR del19/C797S = EGFR del19/C797S (Homo sapiens, UniProt P00533, C797S/DEL746-750); test: Biochemical EGFR kinase assay (Lance Ultra TR-FRET), double mutant del19/C797S
Summary of the method: as §1

EGFR wildtype (WT) = EGFR wildtype (WT) (Homo sapiens, UniProt P00533); test: Biochemical EGFR kinase assay (Lance Ultra TR-FRET), wildtype
Summary of the method: as §1

EGFR L858R/T790M/C797S = EGFR L858R/T790M/C797S (Homo sapiens, UniProt P00533, C797S/L858R/T790M); test: Biochemical EGFR kinase assay (Lance Ultra TR-FRET), triple mutant L858R/T790M/C797S
Summary of the method: as §1

[1] = IC50 del19/T790M/C797S (nM) 100 μM ATP, 100 μM ATP
[2] = Km ATP, read-out: IC50 del19/T790M/C797S (nM) Km ATP
[3] = IC50 L858R/C797S (nM) 100 μM ATP, 100 μM ATP
[4] = Km ATP, read-out: IC50 L858R/C797S (nM) Km ATP
[5] = IC50 del19/C797S (nM) 100 μM ATP, 100 μM ATP
[6] = Km ATP, read-out: IC50 del19/C797S (nM) Km ATP
[7] = IC50 WT (nM) 100 μM ATP, 100 μM ATP
[8] = Km ATP, read-out: IC50 WT (nM) Km ATP
[9] = IC50 L858R/T790M/C797S (nM) 100 μM ATP, 100 μM ATP
[10] = Km ATP, read-out: IC50 L858R/T790M/C797S (nM) Km ATP

Chain of EGFR del19/C797S (P00533 with tags, fused parts or gaps DEL746-750/C797S): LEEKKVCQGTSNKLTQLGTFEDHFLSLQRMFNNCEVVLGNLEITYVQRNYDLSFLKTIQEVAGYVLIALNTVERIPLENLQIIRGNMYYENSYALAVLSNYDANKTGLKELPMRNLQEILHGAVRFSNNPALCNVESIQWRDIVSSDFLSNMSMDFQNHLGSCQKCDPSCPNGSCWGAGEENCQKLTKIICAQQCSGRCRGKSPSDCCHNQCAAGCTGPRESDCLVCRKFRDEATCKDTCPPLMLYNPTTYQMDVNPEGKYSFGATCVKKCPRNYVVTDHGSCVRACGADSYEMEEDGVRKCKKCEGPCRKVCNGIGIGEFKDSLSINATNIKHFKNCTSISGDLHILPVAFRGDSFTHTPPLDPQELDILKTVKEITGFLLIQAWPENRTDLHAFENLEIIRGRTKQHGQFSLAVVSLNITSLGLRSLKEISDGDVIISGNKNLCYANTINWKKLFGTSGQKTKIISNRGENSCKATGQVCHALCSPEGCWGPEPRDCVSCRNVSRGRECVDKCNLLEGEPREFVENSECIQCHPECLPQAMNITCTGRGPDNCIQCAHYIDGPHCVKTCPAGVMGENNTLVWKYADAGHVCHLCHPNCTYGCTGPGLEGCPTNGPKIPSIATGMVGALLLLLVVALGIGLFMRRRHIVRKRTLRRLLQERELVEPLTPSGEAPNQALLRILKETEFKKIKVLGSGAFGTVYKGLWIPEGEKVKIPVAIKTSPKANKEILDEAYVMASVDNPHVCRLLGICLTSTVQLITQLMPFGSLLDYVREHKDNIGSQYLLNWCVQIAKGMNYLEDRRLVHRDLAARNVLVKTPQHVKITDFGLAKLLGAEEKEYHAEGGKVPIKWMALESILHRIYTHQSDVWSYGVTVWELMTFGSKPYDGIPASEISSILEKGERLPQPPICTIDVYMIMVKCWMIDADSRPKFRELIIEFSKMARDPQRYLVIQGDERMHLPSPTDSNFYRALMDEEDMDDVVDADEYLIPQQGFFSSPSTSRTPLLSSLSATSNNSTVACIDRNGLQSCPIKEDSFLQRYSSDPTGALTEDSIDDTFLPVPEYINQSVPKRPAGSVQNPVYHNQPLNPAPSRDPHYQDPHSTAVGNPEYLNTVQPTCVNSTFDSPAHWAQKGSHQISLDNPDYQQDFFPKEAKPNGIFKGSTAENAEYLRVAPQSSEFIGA
Chain of EGFR wildtype (WT) (P00533 25-1210): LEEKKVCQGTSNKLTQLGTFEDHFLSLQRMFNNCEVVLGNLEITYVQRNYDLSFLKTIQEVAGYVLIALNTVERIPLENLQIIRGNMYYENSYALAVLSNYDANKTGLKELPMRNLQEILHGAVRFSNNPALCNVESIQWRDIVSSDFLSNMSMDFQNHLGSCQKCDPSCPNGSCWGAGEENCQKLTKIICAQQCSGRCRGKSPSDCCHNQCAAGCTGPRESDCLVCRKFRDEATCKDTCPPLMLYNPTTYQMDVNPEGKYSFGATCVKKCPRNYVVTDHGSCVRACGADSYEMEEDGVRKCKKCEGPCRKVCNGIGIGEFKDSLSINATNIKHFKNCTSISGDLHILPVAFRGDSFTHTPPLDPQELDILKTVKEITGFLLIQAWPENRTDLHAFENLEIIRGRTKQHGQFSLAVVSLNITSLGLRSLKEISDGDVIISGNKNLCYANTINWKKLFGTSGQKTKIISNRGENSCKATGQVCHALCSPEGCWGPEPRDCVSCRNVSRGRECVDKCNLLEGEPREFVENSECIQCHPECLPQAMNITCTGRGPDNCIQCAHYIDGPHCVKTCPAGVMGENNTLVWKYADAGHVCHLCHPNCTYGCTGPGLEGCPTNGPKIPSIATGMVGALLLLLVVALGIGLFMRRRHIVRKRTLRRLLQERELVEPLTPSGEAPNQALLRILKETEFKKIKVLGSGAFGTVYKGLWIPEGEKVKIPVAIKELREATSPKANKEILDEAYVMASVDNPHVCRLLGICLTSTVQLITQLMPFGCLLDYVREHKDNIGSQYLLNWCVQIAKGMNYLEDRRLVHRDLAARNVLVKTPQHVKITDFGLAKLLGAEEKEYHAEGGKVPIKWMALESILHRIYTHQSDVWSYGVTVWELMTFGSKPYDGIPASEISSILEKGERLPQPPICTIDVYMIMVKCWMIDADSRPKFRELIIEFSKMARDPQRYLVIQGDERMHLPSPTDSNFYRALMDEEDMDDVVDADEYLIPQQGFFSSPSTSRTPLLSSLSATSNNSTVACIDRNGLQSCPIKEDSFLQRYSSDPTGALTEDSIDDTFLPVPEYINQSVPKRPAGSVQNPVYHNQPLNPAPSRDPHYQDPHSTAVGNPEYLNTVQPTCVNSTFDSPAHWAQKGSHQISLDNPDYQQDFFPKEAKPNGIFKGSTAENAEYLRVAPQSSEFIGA
Chain of EGFR del19/T790M/C797S (P00533 with tags, fused parts or gaps DEL746-750/T790M/C797S): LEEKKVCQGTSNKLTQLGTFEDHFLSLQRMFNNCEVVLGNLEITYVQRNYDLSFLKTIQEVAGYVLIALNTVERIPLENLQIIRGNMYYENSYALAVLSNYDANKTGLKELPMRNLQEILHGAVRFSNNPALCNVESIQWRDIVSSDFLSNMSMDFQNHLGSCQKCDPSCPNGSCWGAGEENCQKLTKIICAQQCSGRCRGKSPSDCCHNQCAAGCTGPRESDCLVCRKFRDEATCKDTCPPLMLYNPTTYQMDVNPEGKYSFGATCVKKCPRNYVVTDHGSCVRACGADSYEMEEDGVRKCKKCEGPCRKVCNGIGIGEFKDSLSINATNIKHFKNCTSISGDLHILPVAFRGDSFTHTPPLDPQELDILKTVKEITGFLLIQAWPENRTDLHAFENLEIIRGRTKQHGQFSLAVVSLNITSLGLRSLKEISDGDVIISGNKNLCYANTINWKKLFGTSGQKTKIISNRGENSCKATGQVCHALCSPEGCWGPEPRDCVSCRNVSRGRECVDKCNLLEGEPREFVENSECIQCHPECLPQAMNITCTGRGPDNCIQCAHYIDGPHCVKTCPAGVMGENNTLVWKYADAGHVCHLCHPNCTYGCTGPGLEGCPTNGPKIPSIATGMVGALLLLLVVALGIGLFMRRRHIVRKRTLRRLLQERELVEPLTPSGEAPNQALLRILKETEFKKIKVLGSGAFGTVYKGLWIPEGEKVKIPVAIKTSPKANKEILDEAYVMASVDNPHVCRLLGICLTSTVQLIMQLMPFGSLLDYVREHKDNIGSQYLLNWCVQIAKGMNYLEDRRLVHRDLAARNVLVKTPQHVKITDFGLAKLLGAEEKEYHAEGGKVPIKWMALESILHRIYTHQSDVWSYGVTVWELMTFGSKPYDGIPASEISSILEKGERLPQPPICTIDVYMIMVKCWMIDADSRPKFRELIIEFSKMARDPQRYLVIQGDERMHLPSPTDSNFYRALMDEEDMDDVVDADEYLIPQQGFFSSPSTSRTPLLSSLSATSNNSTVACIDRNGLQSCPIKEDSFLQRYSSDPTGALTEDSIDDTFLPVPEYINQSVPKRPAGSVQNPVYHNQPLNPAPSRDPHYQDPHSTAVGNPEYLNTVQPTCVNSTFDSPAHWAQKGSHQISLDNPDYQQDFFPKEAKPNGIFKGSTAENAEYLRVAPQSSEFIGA
Chain of EGFR L858R/T790M/C797S (P00533 25-1210 T790M/C797S/L858R): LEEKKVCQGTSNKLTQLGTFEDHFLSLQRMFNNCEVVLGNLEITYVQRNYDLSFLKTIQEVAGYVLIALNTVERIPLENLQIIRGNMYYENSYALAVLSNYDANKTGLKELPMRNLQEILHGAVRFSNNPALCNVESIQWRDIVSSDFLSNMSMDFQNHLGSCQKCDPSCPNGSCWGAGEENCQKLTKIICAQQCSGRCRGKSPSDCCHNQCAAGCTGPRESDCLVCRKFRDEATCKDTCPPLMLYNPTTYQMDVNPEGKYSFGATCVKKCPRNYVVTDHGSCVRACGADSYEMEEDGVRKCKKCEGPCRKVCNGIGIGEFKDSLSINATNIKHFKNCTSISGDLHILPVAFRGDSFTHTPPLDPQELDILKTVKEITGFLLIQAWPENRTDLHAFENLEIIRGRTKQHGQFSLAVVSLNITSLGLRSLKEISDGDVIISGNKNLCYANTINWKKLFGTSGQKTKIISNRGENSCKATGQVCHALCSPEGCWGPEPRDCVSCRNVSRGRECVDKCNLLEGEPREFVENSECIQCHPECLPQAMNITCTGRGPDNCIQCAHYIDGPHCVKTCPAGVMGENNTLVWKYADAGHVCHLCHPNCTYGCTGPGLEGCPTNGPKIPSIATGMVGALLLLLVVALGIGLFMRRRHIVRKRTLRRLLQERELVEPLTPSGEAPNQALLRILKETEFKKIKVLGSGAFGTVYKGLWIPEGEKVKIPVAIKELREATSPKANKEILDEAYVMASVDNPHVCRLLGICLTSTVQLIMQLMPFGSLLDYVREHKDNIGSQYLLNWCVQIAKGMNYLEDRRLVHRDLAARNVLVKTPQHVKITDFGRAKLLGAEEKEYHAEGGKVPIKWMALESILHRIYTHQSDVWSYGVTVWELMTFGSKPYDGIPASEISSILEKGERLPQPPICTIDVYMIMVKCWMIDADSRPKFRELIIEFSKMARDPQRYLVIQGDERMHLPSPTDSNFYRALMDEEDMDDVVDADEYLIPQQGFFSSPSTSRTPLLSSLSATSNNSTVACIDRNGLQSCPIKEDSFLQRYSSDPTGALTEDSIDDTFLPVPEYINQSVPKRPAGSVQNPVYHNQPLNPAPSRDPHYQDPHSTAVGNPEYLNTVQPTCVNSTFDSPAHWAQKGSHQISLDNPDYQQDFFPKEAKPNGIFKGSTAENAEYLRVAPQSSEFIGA

IC50 (EGFR del19/T790M/C797S; [1]) [nM]	IC50 (EGFR del19/T790M/C797S; [2]) [nM]	IC50 (EGFR L858R/C797S; [3]) [nM]	IC50 (EGFR L858R/C797S; [4]) [nM]	IC50 (EGFR del19/C797S; [5]) [nM]	IC50 (EGFR del19/C797S; [6]) [nM]	IC50 (EGFR wildtype (WT); [7]) [nM]	IC50 (EGFR wildtype (WT); [8]) [nM]	IC50 (EGFR L858R/T790M/C797S; [9]) [nM]	IC50 (EGFR L858R/T790M/C797S; [10]) [nM]	SMILES
0.1	0.1	3.4	0.3	0.5	0.2	2500	2	0.2	0.1	C[C@]1(O)CC[C@@H](Nc2cc(Nc3ccnc(-c4cnn(S(=O)(=O)C5CC5)c4)n3)ncc2-c2ccn(C3CC3)n2)CC1 [Example 290, (1s,4s)-4-((5-(1-Cyclopropyl-1H-pyrazol-3-yl)-2-((2-(1-(cyclopropylsulfonyl)-1H-pyrazol-4-yl)pyrimidin-4-yl)amino)pyridin-4-yl)amino)-1-methylcyclohexan-1-ol]
1	0.8	33.8	3.9	6.8	5.4	> 10000	25.1	1.2	0.3	C[C@]1(O)CC[C@H](CNc2cc(Nc3ccnc(-c4cnn(S(=O)(=O)C5CC5)c4)n3)ncc2-c2ccn(C(F)F)n2)CC1 [Example 36, (1r,4r)-4-(((2-((2-(1-(Cyclopropylsulfonyl)-1H-pyrazol-4-yl)pyrimidin-4-yl)amino)-5-(1-(difluoromethyl)-1H-pyrazol-3-yl)pyridin-4-yl)amino)methyl)-1-methylcyclohexan-1-ol]
0.4	0.3	2.3	0.8	1.1	0.5	4690	5.2	0.5	0.1	O=S(=O)(C1CC1)n1cc(-c2nccc(Nc3cc(NCC4CCC(NCCF)CC4)c(-c4ccn(C(F)F)n4)cn3)n2)cn1 (centres unmarked) [Example 132, N^2-(2-(1-(Cyclopropylsulfonyl)-1H-pyrazol-4-yl)pyrimidin-4-yl)-5-(1-(difluoromethyl)-1H-pyrazol-3-yl)-N^4-((4-((2-fluoroethyl)amino)cyclohexyl)methyl)pyridine-2,4-diamine]
0.2	0.2	5.9	0.7	0.6	0.3	3020	3.2	0.2	0.1	Cn1ccc(-c2cnc(Nc3ccnc(-c4cnn(S(=O)(=O)C5CC5)c4)n3)cc2NC[C@H]2C[C@H](CO)C2)n1 [Example 223, ((1r,3r)-3-(((2-((2-(1-(Cyclopropylsulfonyl)-1H-pyrazol-4-yl)pyrimidin-4-yl)amino)-5-(1-methyl-1H-pyrazol-3-yl)pyridin-4-yl)amino)methyl)cyclobutyl)methanol]
	4.2		139		162		1100		2.8	C[C@]1(O)CC[C@@H](Nc2cc(Nc3ccnc(Nc4ccnn4CC(F)F)n3)ncc2-c2ccn(C(F)F)n2)CC1 [Example 155, (1s,4s)-4-((2-((2-((1-(2,2-Difluoroethyl)-1H-pyrazol-5-yl)amino)pyrimidin-4-yl)amino)-5-(1-(difluoromethyl)-1H-pyrazol-3-yl)pyridin-4-yl)amino)-1-methylcyclohexan-1-ol]
3.9	3.7	33.5	18.5	6.5	5.5	> 10000	12.9	6.5	1.7	Cn1nc(-c2cnc(Nc3ccnc(-c4cnn(S(=O)(=O)C5CC5)c4)n3)cc2N[C@H]2CC[C@@H](C(C)(C)O)CC2)cc1C(F)(F)F [Example 254, 2-((1s,4s)-4-((2-((2-(1-(Cyclopropylsulfonyl)-1H-pyrazol-4-yl)pyrimidin-4-yl)amino)-5-(1-methyl-5-(trifluoromethyl)-1H-pyrazol-3-yl)pyridin-4-yl)amino)cyclohexyl)propan-2-ol]

Continued, molecule first:

SMILES	IC50 (EGFR del19/T790M/C797S; [1]) [nM]	IC50 (EGFR del19/T790M/C797S; [2]) [nM]	IC50 (EGFR L858R/C797S; [3]) [nM]	IC50 (EGFR L858R/C797S; [4]) [nM]	IC50 (EGFR del19/C797S; [5]) [nM]	IC50 (EGFR del19/C797S; [6]) [nM]	IC50 (EGFR wildtype (WT); [7]) [nM]	IC50 (EGFR wildtype (WT); [8]) [nM]	IC50 (EGFR L858R/T790M/C797S; [9]) [nM]	IC50 (EGFR L858R/T790M/C797S; [10]) [nM]
CN1CC(Nc2cc(Nc3ccnc(-c4cnn(S(=O)(=O)C5CC5)c4)n3)ncc2-c2ccn(C(F)F)n2)CCC1=O (centres unmarked) [Example 37, 5-((2-((2-(1-(Cyclopropylsulfonyl)-1H-pyrazol-4-yl)pyrimidin-4-yl)amino)-5-(1-(difluoromethyl)-1H-pyrazol-3-yl)pyridin-4-yl)amino)-1-methylpiperidin-2-one]	1.4	1.2	264	5	16.6	12.1	> 10000	108	6.6	0.7
O=C1NCCCC1Nc1cc(Nc2ccnc(-c3cnn(S(=O)(=O)C4CC4)c3)n2)ncc1-c1ccn(C(F)F)n1 (centres unmarked) [Example 38, 3-((2-((2-(1-(Cyclopropylsulfonyl)-1H-pyrazol-4-yl)pyrimidin-4-yl)amino)-5-(1-(difluoromethyl)-1H-pyrazol-3-yl)pyridin-4-yl)amino)piperidin-2-one]	0.5	0.5	182	9.1	24.8	23.7	> 10000	60.7	2.5	0.3
O=S(=O)(C1CC1)n1cc(-c2nccc(Nc3cc(NC4CCC(F)(CO)CC4)c(-c4cc5n(n4)CCCC5)cn3)n2)cn1 (centres unmarked) [Example 276, (4-((2-((2-(1-(Cyclopropylsulfonyl)-1H-pyrazol-4-yl)pyrimidin-4-yl)amino)-5-(4,5,6,7-tetrahydropyrazolo[1,5-a]pyridin-2-yl)pyridin-4-yl)amino)-1-fluorocyclohexyl)methanol]	1.1	0.8	121	1.9	1.4	1.2	> 10000	14.9	0.9	0.4
O=S(=O)(C1CC1)n1cc(-c2nccc(Nc3cc(NC4CCCCC4O)c(-c4ccn(C(F)F)n4)cn3)n2)cn1 (centres unmarked) [Example 28, 2-((2-((2-(1-(Cyclopropylsulfonyl)-1H-pyrazol-4-yl)pyrimidin-4-yl)amino)-5-(1-(difluoromethyl)-1H-pyrazol-3-yl)pyridin-4-yl)amino)cyclohexan-1-ol]	1.1	0.9	598	21.8	62.7	95.7	> 10000	241	5.5	0.8
O=S(=O)(C1CC1)n1cc(-c2nccc(Nc3cc(NC4CCC5(CC4)CNC5)c(-c4ccn(C(F)F)n4)cn3)n2)cn1 [Example 27, N^2-(2-(1-(Cyclopropylsulfonyl)-1H-pyrazol-4-yl)pyrimidin-4-yl)-5-(1-(difluoromethyl)-1H-pyrazol-3-yl)-N^4-(2-azaspiro[3.5]nonan-7-yl)pyridine-2,4-diamine]	0.6	0.7	2.2	0.5	0.3	0.2	162	0.7	0.4	0.2
O=S(=O)(C1CC1)n1cc(-c2nccc(Nc3cc(NC4CCCC(F)C4)c(-c4ccn(C(F)F)n4)cn3)n2)cn1 (centres unmarked) [Example 181, N^2-(2-(1-(Cyclopropylsulfonyl)-1H-pyrazol-4-yl)pyrimidin-4-yl)-5-(1-(difluoromethyl)-1H-pyrazol-3-yl)-N^4-(3-fluorocyclohexyl)pyridine-2,4-diamine]		2.1		13.2		6.7		44.6		2.1
C[C@]1(O)CC[C@@H](Nc2cc(Nc3ccnc(-c4cnn(S(=O)(=O)C5CC5)c4)n3)ncc2-c2ccn(CC(F)F)n2)CC1 [Example 241, (1s,4s)-4-((2-((2-(1-(Cyclopropylsulfonyl)-1H-pyrazol-4-yl)pyrimidin-4-yl)amino)-5-(1-(2,2-difluoroethyl)-1H-pyrazol-3-yl)pyridin-4-yl)amino)-1-methylcyclohexan-1-ol]	0.6	0.5		0.5	0.5	0.5	2980	5	0.7	0.3
CC(O)C(C)(C)Nc1cc(Nc2ccnc(-c3cnn(S(=O)(=O)C4CC4)c3)n2)ncc1-c1ccn(C)n1 (centres unmarked) [Example 95, 3-((2-((2-(1-(Cyclopropylsulfonyl)-1H-pyrazol-4-yl)pyrimidin-4-yl)amino)-5-(1-methyl-1H-pyrazol-3-yl)pyridin-4-yl)amino)-3-methylbutan-2-ol]	1.3		45.2		57.7		> 10000		1.9	
Cn1ccc(-c2cnc(Nc3ccnc(-c4cnn(S(=O)(=O)C5CC5)c4)n3)cc2NC[C@H]2CC[C@H](O)CC2)n1 [Example 47, (1r,4r)-4-(((2-((2-(1-(Cyclopropylsulfonyl)-1H-pyrazol-4-yl)pyrimidin-4-yl)amino)-5-(1-methyl-1H-pyrazol-3-yl)pyridin-4-yl)amino)methyl)cyclohexan-1-ol]	0.6	0.6	6.5	0.8	0.8	0.5	> 10000	4.5	0.5	0.1
